Measurements from PMC8584989 (International Journal of Molecular Sciences, 2021).

Legend:
A431-ABCG2 cells = test: MTT proliferation / drug combination assay; settings: read-out: IC50 (IC50-shift analysis)
HL60-ABCG2 cells = test: XTT proliferation / drug combination assay; settings: read-out: IC50 (IC50-shift analysis)
A431-par cells = test: MTT proliferation / drug combination assay; type: cell-based; settings: read-out: IC50 (IC50-shift analysis)
Method: (§1) These colorimetric assays were used in various studies presented in this paper (prior induction studies, MDR reversal experiments and comparative viability assays) and were performed as reported previously. […] In MTT experiments, cells were seeded on a 96-well culture plate at densities (in number of cells/well) of 1.3 × 10^4 for MDCKII-par, MDCKII-ABCB1 and MDCKII-ABCG2; 1.2 × 10^4 for A431-par, A431-ABCB1, A431-ABCG2 and A431-ABCC1; 1.2 × 10^4 for NCI-H1299; 1.0 × 10^4 for A459; 2.0 × 10^4 for Caco-2; 5.0 × 10^4 for LS174T; and 1.0 × 10^4 for primary NSCLC explants. On the other hand, for XTT cells were seeded with densities 2.0 × 10^4 for HL60-par, HL60-ABCB1, HL60-ABCG2 and HL60-ABCC1 cells/well on 96-well plates. […] Following 48 h incubation with drugs, Opti-MEM solutions of MTT or XTT (1 mg/mL) with phenazine methosulfate solution (7.50 μg/mL; only for XTT) was added and the cells were incubated for 1 h with the exception of HL60s that were incubated for 5 h.
(§2) Based on the computed CI values, the effects of drug combinations were classified as synergistic (CI < 0.9), additive (0.9 < CI < 1.1) or antagonistic (CI > 1.1).

HL60-par cells = test: XTT proliferation / drug combination assay; type: cell-based; settings: read-out: IC50 (IC50-shift analysis)
Method: as §1, §2

MDCKII-parent cells = test: MTT proliferation / drug combination assay; type: cell-based, canine; settings: Canis lupus familiaris, read-out: IC50 (IC50-shift analysis)
Method: as §1, §2

MDCKII-ABCB1 cells = test: MTT proliferation / drug combination assay; settings: Canis lupus familiaris, read-out: IC50 (IC50-shift analysis)
A431-ABCB1 cells = test: MTT proliferation / drug combination assay; settings: read-out: IC50 (IC50-shift analysis)
HL60-ABCB1 cells = test: XTT proliferation / drug combination assay; settings: read-out: IC50 (IC50-shift analysis)

O=C1c2c(O)ccc(O)c2C(=O)c2c(NCCNCCO)ccc(NCCNCCO)c21 [mitoxantrone]
IC50 (A431-ABCG2 cells): 56500 nM | IC50 (HL60-ABCG2 cells): 669 nM | IC50 (A431-par cells): 2100 nM | IC50 (HL60-par cells): 30.5 nM

COc1cccc2c1C(=O)c1c(O)c3c(c(O)c1C2=O)C[C@@](O)(C(C)=O)C[C@@H]3O[C@H]1C[C@H](N)[C@H](O)[C@H](C)O1 [daunorubicin]
IC50 (MDCKII-parent cells): 947 nM | IC50 (MDCKII-ABCB1 cells): 11900 nM | IC50 (A431-par cells): 1990 nM | IC50 (HL60-par cells): 53.1 nM | IC50 (A431-ABCB1 cells): 21700 nM | IC50 (HL60-ABCB1 cells): 2140 nM
